Key:
p-AXL = biological target: T1, p-AXL (Homo sapiens, UniProt P30530); assay: Axl phosphorylation inhibition ELISA in HEK293T cells transfected with NanoLuc-tagged AXL; type: cell-based; conditions: 1 h compound incubation, media (OptiMEM)
T1 construct: expressed in transfected cells; host or cells: HEK293T
T1 sequence (P30530 26-894): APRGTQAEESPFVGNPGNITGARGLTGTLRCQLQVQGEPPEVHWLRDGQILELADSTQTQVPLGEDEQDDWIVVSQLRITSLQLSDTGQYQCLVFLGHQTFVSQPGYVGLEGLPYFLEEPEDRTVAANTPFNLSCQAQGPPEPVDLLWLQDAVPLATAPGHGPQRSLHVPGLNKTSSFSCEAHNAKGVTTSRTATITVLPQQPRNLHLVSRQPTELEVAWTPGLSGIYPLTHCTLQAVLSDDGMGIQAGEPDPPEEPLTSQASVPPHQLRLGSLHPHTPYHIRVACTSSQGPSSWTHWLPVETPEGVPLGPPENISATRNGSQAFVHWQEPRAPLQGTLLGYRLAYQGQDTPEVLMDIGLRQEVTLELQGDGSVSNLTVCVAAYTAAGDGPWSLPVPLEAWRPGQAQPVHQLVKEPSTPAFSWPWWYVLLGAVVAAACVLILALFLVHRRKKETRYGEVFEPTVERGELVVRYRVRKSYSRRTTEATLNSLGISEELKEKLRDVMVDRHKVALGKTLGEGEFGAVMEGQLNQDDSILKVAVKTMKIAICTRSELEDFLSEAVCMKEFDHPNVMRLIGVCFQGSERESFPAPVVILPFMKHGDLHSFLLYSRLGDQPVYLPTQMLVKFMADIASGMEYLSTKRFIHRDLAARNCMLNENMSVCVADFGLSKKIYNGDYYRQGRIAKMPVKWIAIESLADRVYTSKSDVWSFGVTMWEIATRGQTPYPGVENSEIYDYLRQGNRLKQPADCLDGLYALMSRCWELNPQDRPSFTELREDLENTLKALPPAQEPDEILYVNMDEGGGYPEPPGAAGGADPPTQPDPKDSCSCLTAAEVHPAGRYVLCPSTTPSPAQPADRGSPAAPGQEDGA
Method in brief: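 Phospho-AXL detected by luminescence of NanoLuc tag after capture of cell lysate on biotinylated anti-phospho-tyrosine mAb plates (2 h). Lysates came from transiently transfected HEK293T cells treated 1 h at 37° C with serial 2-fold dilutions (22 points). IC50 by standard 4-parameter logistic fitting.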

Axl = biological target: T2, Axl (Homo sapiens, UniProt P30530); assay: Biochemical potency, HTRF KinEASE-TK kinase assay; parameters: purchased Invitrogen; conditions: 5 nM AXL, 700 μM ATP
T2 sequence (P30530 26-894): T1 sequence (P30530 26-894)
Method in brief: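 Phosphorylation of a biotinylated tyrosine-kinase peptide (800 nM) by AXL (5 nM) or TYRO3/MER (1 nM) is measured at 700 µM ATP after 2 h at room temperature, following 1 h enzyme–compound preincubation. Signal is the time-resolved FRET ratio, converted to percent activity.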

Row | Compound | IC50 (p-AXL) [nM] | IC50 (Axl) [nM]
1 | CC(C)(O)c1cccnc1-c1ccc(-c2c[nH]c3ncc(-c4ccc5c(c4)CC[C@@H](N4C6COCC4C6)CC5)cc23)cc1 [Example 95, 2-[2-(4-{5-[(7S)-7-{3-Oxa-6-azabicyclo[3.1.1]heptan-6-yl}-6,7,8,9-tetrahydro-5H-benzo[7]annulen-2-yl]-1H-pyrrolo[2,3-b]pyridin-3-yl}phenyl)pyridin-3-yl]propan-2-ol] | < 100 | < 100
2 | COC[C@H]1CCN([C@H]2CCc3ccc(-c4cnc5[nH]nc(-c6ccc(-c7ncccc7C)cc6)c5c4)cc3CC2)C1 [Example 132, 2-(4-{5-[(7S)-7-[(3S)-3-(Methoxymethyl)pyrrolidin-1-yl]-6,7,8,9-tetrahydro-5H-benzo[7]annulen-2-yl]-1H-pyrazolo[3,4-b]pyridin-3-yl}phenyl)-3-methylpyridine] | < 100 | < 100
3 | Cc1ncc(C)c(-c2ccc(-c3c[nH]c4ncc(-c5ccc6c(c5)CC[C@@H](N5C7COCC5C7)CC6)cc34)cc2)n1 [Example 123, 6-[(7S)-2-{3-[4-(2,5-Dimethylpyrimidin-4-yl)phenyl]-1H-pyrrolo[2,3-b]pyridin-5-yl}-6,7,8,9-tetrahydro-5H-benzo[7]annulen-7-yl]-3-oxa-6-azabicyclo[3.1.1]heptane] | < 100 | < 100
4 | CC(C)(O)c1cccnc1-c1ccc(-c2n[nH]c3ncc(-c4ccc5c(c4)CC[C@@H](N4C6COCC4C6)CC5)cc23)nc1 [Example 100, 2-(6′-{5-[(7S)-7-{3-Oxa-6-azabicyclo[3.1.1]heptan-6-yl}-6,7,8,9-tetrahydro-5H-benzo[7]annulen-2-yl]-1H-pyrazolo[3,4-b]pyridin-3-yl}-[2,3′-bipyridin]-3-yl)propan-2-ol] | < 100 | < 100
5 | Cc1cc(F)cnc1-c1ccc(-c2c[nH]c3ncc(-c4ccc5c(c4)CC[C@@H](N4C6COCC4C6)CC5)cc23)cc1 [Example 29, 6-[(7S)-3-[3-[4-(5-Fluoro-3-methylpyridin-2-yl)phenyl]-1H-pyrrolo[2,3-b]pyridin-5-yl]-6,7,8,9-tetrahydro-5H-benzo[7]annulen-7-yl]-3-oxa-6-azabicyclo[3.1.1]heptane] | 100 to 1000 | < 100
6 | Cc1nc(-c2ccc(-c3n[nH]c4ncc(-c5ccc6c(c5)CC[C@@H](N5C7COCC5C7)CC6)cc34)cc2)n(C)n1 [Example 23, 6-[(7S)-2-{3-[4-(1,3-Dimethyl-1H-1,2,4-triazol-5-yl)phenyl]-1H-pyrazolo[3,4-b]pyridin-5-yl}-6,7,8,9-tetrahydro-5H-benzo[7]annulen-7-yl]-3-oxa-6-azabicyclo[3.1.1]heptane] | < 100 | < 100
7 | C[C@@H]1CCCN1[C@@]1(C)CCc2ccc(-c3cnc4[nH]nc(-c5ccc(-c6ncnn6C)cc5)c4c3)cc2CC1 [Example 112, 1-Methyl-5-(4-{5-[(7S)-7-methyl-7-[(2R)-2-methylpyrrolidin-1-yl]-6,7,8,9-tetrahydro-5H-benzo[7]annulen-2-yl]-1H-pyrazolo[3,4-b]pyridin-3-yl}phenyl)-1H-1,2,4-triazole] | < 100 | < 100
8 | Cc1cnc(-c2ccc(-c3n[nH]c4ncc(-c5ccc6c(c5)CC[C@@H](N5C7COCC5C7)CC6)cc34)cc2)c(C)c1 [Example 119, 6-[(7S)-2-{3-[4-(3,5-Dimethylpyridin-2-yl)phenyl]-1H-pyrazolo[3,4-b]pyridin-5-yl}-6,7,8,9-tetrahydro-5H-benzo[7]annulen-7-yl]-3-oxa-6-azabicyclo[3.1.1]heptane] | < 100 | < 100
9 | Cc1cccnc1-c1ccc(-c2n[nH]c3ncc(-c4ccc5c(c4)CC[C@@H](N4C6COCC4C6)CC5)cc23)nc1 [Example 26, 3-Methyl-6′-{5-[(7S)-7-{3-oxa-6-azabicyclo[3.1.1]heptan-6-yl}-6,7,8,9-tetrahydro-5H-benzo[7]annulen-2-yl]-1H-pyrazolo[3,4-b]pyridin-3-yl}-2,3′-bipyridine] | < 100 | < 100

Results, then the compound that gave them:

Row | IC50 (p-AXL) [nM] | IC50 (Axl) [nM] | Compound
10 | 100 to 1000 | < 100 | O=C(c1cccnc1-c1ccc(-c2n[nH]c3ncc(-c4ccc5c(c4)CC[C@@H](N4C6COCC4C6)CC5)cc23)cc1)N1CCCC1 [Example 4, 6-[(7S)-2-(3-{4-[3-(Pyrrolidine-1-carbonyl)pyridin-2-yl]phenyl}-1H-pyrazolo[3,4-b]pyridin-5-yl)-6,7,8,9-tetrahydro-5H-benzo[7]annulen-7-yl]-3-oxa-6-azabicyclo[3.1.1]heptane]
11 | < 100 | < 100 | Cc1cccnc1-c1ccc(-c2c[nH]c3ncc(-c4ccc5c(c4)CC[C@@H](N4C[C@@H]6C[C@H]4CO6)CC5)cc23)cc1 [Example 187, (4S)-5-[(7S)-2-{3-[4-(3-Methylpyridin-2-yl)phenyl]-1H-pyrrolo[2,3-b]pyridin-5-yl}-6,7,8,9-tetrahydro-5H-benzo[7]annulen-7-yl]-2-oxa-5-azabicyclo[2.2.1]heptane]
12 | < 100 | < 100 | CC(C)(C#N)c1cccnc1-c1ccc(-c2c[nH]c3ncc(-c4ccc5c(c4)CC[C@@H](N4C6COCC4C6)CC5)cc23)cc1 [Example 21, 2-Methyl-2-[2-[4-[5-[(7S)-7-(3-oxa-6-azabicyclo[3.1.1]heptan-6-yl)-6,7,8,9-tetrahydro-5H-benzo[7]annulen-3-yl]-1H-pyrrolo[2,3-b]pyridin-3-yl]phenyl]pyridin-3-yl]propanenitrile]
13 | 100 to 1000 | < 100 | Cc1cc(-c2n[nH]c3ncc(-c4ccc5c(c4)CC[C@@H](N4C6COCC4C6)CC5)cc23)ccc1-c1ccccn1 [Example 159, 6-[(7S)-2-{3-[3-Methyl-4-(pyridin-2-yl)phenyl]-2H-pyrazolo[3,4-b]pyridin-5-yl}-6,7,8,9-tetrahydro-5H-benzo[7]annulen-7-yl]-3-oxa-6-azabicyclo[3.1.1]heptane]
14 | < 100 | < 100 | CC(C)(O)c1ccccc1-c1ccc(-c2c[nH]c3ncc(-c4ccc5c(c4)CC[C@@H](N4C6COCC4C6)CC5)cc23)cn1 [Example 114, 2-[2-(5-{5-[(7S)-7-{3-Oxa-6-azabicyclo[3.1.1]heptan-6-yl}-6,7,8,9-tetrahydro-5H-benzo[7]annulen-2-yl]-1H-pyrrolo[2,3-b]pyridin-3-yl}pyridin-2-yl)phenyl]propan-2-ol]
15 | < 100 | < 100 | O=C(c1cccnc1-c1ccc(-c2c[nH]c3ncc(-c4ccc5c(c4)CC[C@@H](N4C6COCC4C6)CC5)cc23)cc1)N1CCCC1 [Example 171, 6-[(7S)-2-(3-{4-[3-(Pyrrolidine-1-carbonyl)pyridin-2-yl]phenyl}-1H-pyrrolo[2,3-b]pyridin-5-yl)-6,7,8,9-tetrahydro-5H-benzo[7]annulen-7-yl]-3-oxa-6-azabicyclo[3.1.1]heptane]
16 | < 100 | < 100 | Cc1cccnc1-c1ccc(-c2n[nH]c3ncc(-c4ccc5c(c4)CC[C@@H](N[C@H]4CCCOC4)CC5)cc23)cc1 [Example 129, (3S)—N-[(7S)-2-{3-[4-(3-Methylpyridin-2-yl)phenyl]-1H-pyrazolo[3,4-b]pyridin-5-yl}-6,7,8,9-tetrahydro-5H-benzo[7]annulen-7-yl]oxan-3-amine]
17 | < 100 | < 100 | Cc1cccnc1-c1ccc(-c2n[nH]c3ncc(-c4ccc5c(c4)CC[C@@](C)(N4CCC[C@H]4C)CC5)cc23)nc1 [Example 105, 3-Methyl-6′-{5-[(7S)-7-methyl-7-[(2R)-2-methylpyrrolidin-1-yl]-6,7,8,9-tetrahydro-5H-benzo[7]annulen-2-yl]-1H-pyrazolo[3,4-b]pyridin-3-yl}-2,3′-bipyridine]
